≈ marks a conversion by molar mass, not a printed value. Read-outs that look alike come from different tables or passages of the source.
Key:
Assay in all cases: MIC, agar dilution test (Denley multipoint inoculator; Iso-sensitest agar)
Assay type in all cases: cell-based
Proleus mirabilis 8223 = settings: 37° C., about 20 hours, about 10^4 colony-forming particles
Protocol: (§1) The minimum inhibitory concentrations (MIC) were determined by the series dilution method on Iso-Sensitest agar (Oxoid). For each test substance, a series of agar plates which contained concentrations of the active compound which decreased by a dilution factor of two each time was prepared. The agar plates were inoculated with a multipoint inoculator (Denley). Overnight cultures of the pathogens which had first been diluted so that each inoculation point contained about 10^4 colony-forming particles were used for the inoculation. The inoculated agar plates were incubated at 37° C. and the germ growth was read off after about 20 hours. The MIC value (μg/ml) indicates the lowest active compound concentration at which no germ growth was to be detected with the naked eye.
(§2) The MIC values of some of the compounds according to the invention are shown in comparison with ciprofloxacin in the following table.
(§3) MIC values (mg/l) determined by the agar dilution
(§4) test (Denley multipoint inoculator; Iso-sensitest agar)

[1] = system: Enterococcus faecalis 9790; settings: read-out: MIC values
Protocol: as §1, §2, §3, §4

Proleus vulgaris 1017 = settings: 37° C., about 20 hours, about 10^4 colony-forming particles
Protocol: as §1, §2, §3, §4

Escherichia coli Neumann = settings: 37° C., about 20 hours, about 10^4 colony-forming particles
Protocol: as §1, §2, §3, §4

[2] = system: Staphylococcus aureus FK 422; settings: read-out: MIC values
Protocol: as §1, §2, §3, §4

[3] = system: Enterococcus faecalis 27101; settings: read-out: MIC values
Protocol: as §1, §2, §3, §4

[4] = system: Providencia stuartei 12052; settings: 37° C., about 20 hours, about 10^4 colony-forming particles
Protocol: as §1, §2, §3, §4

Morganella morganii 932 = settings: 37° C., about 20 hours, about 10^4 colony-forming particles
Protocol: as §1, §2, §3, §4

[5] = system: Staphylococcus aureus 133; settings: read-out: MIC values
Protocol: as §1, §2, §3, §4

[6] = system: Staphylococcus aureus 1756; settings: read-out: MIC values
Protocol: as §1, §2, §3, §4

[7] = Enterococcus faecalis 9790, 37° C., about 20 hours, about 10^4 colony-forming particles
[8] = FK422, Staphylococcus aureus FK 422, 37° C., about 20 hours, about 10^4 colony-forming particles
[9] = Enterococcus faecalis 27101, 37° C., about 20 hours, about 10^4 colony-forming particles
[10] = Staphylococcus aureus 133, 37° C., about 20 hours, about 10^4 colony-forming particles
[11] = Staphylococcus aureus 1756, 37° C., about 20 hours, about 10^4 colony-forming particles

Row | Structure (SMILES) | MIC (Proleus mirabilis 8223) | MIC [1, 7] | MIC (Proleus vulgaris 1017) | MIC (Escherichia coli Neumann) | MIC [2, 8] | MIC [3, 9] | MIC [4] | MIC (Morganella morganii 932) | MIC [5, 10] | MIC [6, 11] | MIC ([1]; Enterococcus faecalis, 9790, 20 h) | MIC ([2]; Staphylococcus aureus, FK422, 20 h) | MIC ([3]; Enterococcus faecalis, 27101, 20 h) | MIC ([5]; Staphylococcus aureus, 133, 20 h) | MIC ([6]; Staphylococcus aureus, 1756, 20 h)
1 | CO[C@@H]1CN(c2c(F)cc3c(=O)c(C(=O)O)cn(C4CC4)c3c2F)C[C@H]1N.Cl (relative stereo) [Example 1, 7-(trans-3-amino-4-methoxy-1-pyrrolidinyl)-1-cyclopropyl-6,8-difluoro-4-oxo-3-quinolinecarboxylic acid hydrochloride] | 1 µg/mL | 0.125 µg/mL | ≤ 0.015 µg/mL | ≤ 0.015 µg/mL | 0.06 µg/mL | 0.125 µg/mL | 1 µg/mL | ≤ 0.015 µg/mL | 0.06 µg/mL | 0.06 µg/mL | – | – | – | – | –
2 | CO[C@@H]1CN(c2cc3c(cc2F)c(=O)c(C(=O)O)cn3C2CC2)C[C@H]1N.Cl (relative stereo) [Example 2, 7-(trans-3-Amino-4-methoxy-1-pyrrolidinyl)-1-cyclopropyl-6-fluoro-4-oxo-3-quinolinecarboxylic acid hydrochloride] | 4 µg/mL | 0.5 µg/mL | 0.125 µg/mL | ≤ 0.015 µg/mL | 0.125 µg/mL | – | 4 µg/mL | 0.03 µg/mL | 0.125 µg/mL | 0.125 µg/mL | – | – | – | – | –
3 | CO[C@H]1CN(c2c(F)cc3c(=O)c(C(=O)O)cn(C4CC4)c3c2F)C[C@H]1N.Cl (relative stereo) [Example 3, 7-(cis-3-Amino-4-methoxy-1-pyrrolidinyl)-1-cyclopropyl-6,8-difluoro-4-oxo-3-quinolinecarboxylic acid hydrochloride] | 1 µg/mL | 0.25 µg/mL | ≤ 0.015 µg/mL | ≤ 0.015 µg/mL | 0.06 µg/mL | 0.125 µg/mL | 2 µg/mL | 0.03 µg/mL | 0.03 µg/mL | 0.06 µg/mL | – | – | – | – | –
4 | CO[C@H]1CN(c2c(F)cc3c(=O)c(C(=O)O)cn(C4CC4)c3c2Cl)C[C@H]1N.O=C(O)C(F)(F)F (relative stereo) [Example 4, 7-(cis-3-amino-4-methoxy-1-pyrrolidinyl)-8-chloro-1-cyclopropyl-6-fluoro-1,4-dihydro-4-oxo-3-quinolinecarboxylic acid trifluoroacetate] | 0.5 µg/mL | 0.06 µg/mL | ≤ 0.015 µg/mL | ≤ 0.015 µg/mL | ≤ 0.016 µg/mL | 0.06 µg/mL | 0.5 µg/mL | ≤ 0.015 µg/mL | ≤ 0.015 µg/mL | ≤ 0.015 µg/mL | – | – | – | – | –
5 | CO[C@H]1CN(c2cc3c(cc2F)c(=O)c(C(=O)O)cn3C2CC2)C[C@H]1N.Cl (relative stereo) [Example 5, 7-(cis-3-Amino-4-methoxy-1-pyrrolidinyl)-1-cyclopropyl-6-fluoro-1,4-dihydro-4-oxo-3-quinolinecarboxylic acid hydrochloride] | 2 µg/mL | 0.25 µg/mL | 0.03 µg/mL | ≤ 0.015 µg/mL | 0.125 µg/mL | 0.25 µg/mL | 4 µg/mL | ≤ 0.015 µg/mL | 0.125 µg/mL | 0.125 µg/mL | – | – | – | – | –
6 | O=C(O)c1cn(C2CC2)c2cc(N3CCNCC3)c(F)cc2c1=O [Ciprofloxacin, ciprofloxacin, reference compound] | 1 µg/mL (≈ 3.02 µM) | – | ≤ 0.015 µg/mL | ≤ 0.015 µg/mL | – | – | 4 µg/mL (≈ 12.1 µM) | ≤ 0.015 µg/mL | – | – | 0.25 µg/mL (≈ 0.754 µM) | 0.25 µg/mL (≈ 0.754 µM) | 0.05 µg/mL (≈ 0.151 µM) | 0.25 µg/mL (≈ 0.754 µM) | 0.25 µg/mL (≈ 0.754 µM)
7 | O=C(O)c1cn(C2CC2)c2c(F)c(N3CC4NCCOC4C3)c(F)cc2c1=O (stereo not shown) [Example 8, 1-cyclopropyl-6,8-difluoro-1,4-dihydro-7-(2-oxa-5,8-diazabicyclo[4.3.0]non-8-yl)-4-oxo-3-quinolinecarboxylic acid] | 2 µg/mL (≈ 5.11 µM) | 0.125 µg/mL (≈ 0.319 µM) | 0.06 µg/mL (≈ 0.153 µM) | ≤ 0.015 µg/mL | 0.03 µg/mL (≈ 0.0767 µM) | 0.125 µg/mL (≈ 0.319 µM) | 4 µg/mL (≈ 10.2 µM) | 0.06 µg/mL (≈ 0.153 µM) | 0.03 µg/mL (≈ 0.0767 µM) | 0.03 µg/mL (≈ 0.0767 µM) | – | – | – | – | –
8 | CN1CCOC2CN(c3c(F)cc4c(=O)c(C(=O)O)cn(C5CC5)c4c3F)CC21 (stereo not shown) [Example 9, 1-cyclopropyl-6,8-difluoro-1,4-dihydro-7-(5-methyl-2-oxa-5,8-diazabicyclo[4.3.0]non-8-yl)-4-oxo-3-quinolinecarboxylic acid] | 8 µg/mL (≈ 19.7 µM) | 0.25 µg/mL (≈ 0.617 µM) | 0.5 µg/mL (≈ 1.23 µM) | 0.25 µg/mL (≈ 0.617 µM) | 0.06 µg/mL (≈ 0.148 µM) | 0.25 µg/mL (≈ 0.617 µM) | 32 µg/mL (≈ 78.9 µM) | 0.5 µg/mL (≈ 1.23 µM) | 0.06 µg/mL (≈ 0.148 µM) | 0.06 µg/mL (≈ 0.148 µM) | – | – | – | – | –

From patent US5059597A, “7-(4-oxa or 4-thia-2,7-diazabicyclo[3.3.0]oct-2-en-3-yl)-3-quinolone-and-naphthyrido ne-carboxylic acid derivatives as antibacterial agents and feed additives” (Bayer Aktiengesellschaft, priority 1988, dated 1991)
